Article PMC4209961 (Journal of nuclear medicine : official publication, Society …, 2013)

Test system: U87MG tumors
Assay: Tumor growth
Assay type: in vivo, athymic nude mice
Settings: two doses of doxorubicin 5 mg/kg/dose two days apart, tail vein; at day 5 after the treatment started, P < 0.05

**Q.** With `COc1cccc2c1C(=O)c1c(O)c3c(c(O)c1C2=O)C[C@@](O)(C(=O)CO)C[C@@H]3O[C@H]1C[C@H](N)[C@H](O)[C@H](C)O1` [doxorubicin] as the compound, how does the tumor growth response read?
**A.** significant growth inhibition
